pIC50: −log10 of the molar value. ≈ marks a conversion by molar mass, not a printed value.
Tests used:
[1] = target: T1, Glucose-6-phosphate 1-dehydrogenase (Homo sapiens, UniProt P11413); assay: Inhibition of human recombinant N-terminal His tagged G6PD expressed in Escherichia coli JM109 (DE3) cells assessed as production of NADPH after 30 mins by Amplite fluorimetric assay
[2] = target: T1, Glucose-6-phosphate 1-dehydrogenase; assay: Inhibition of G6PD in HEK293T cells assessed as accumulation of 6-phosphogluconate after 5 hrs by LC-MS/MS analysis using 6-aminonicotinamide; format: cell-based, HEK-293T
[3] = target: T1, Glucose-6-phosphate 1-dehydrogenase; assay: Ratio of IC50 for G6PD in HEK293T cells to IC50 for human recombinant G6PD expressed in Escherichia coli JM109 (DE3) cells; conditions: HEK-293T
[4] = Aqueous solubility of the compound in phosphate buffer by turbidimetric method; format: physicochemical
[5] = Permeability of the compound from apical to basolateral side of human Caco2 cells; format: ADME, cell-based; conditions: Caco-2, read-out: permeability
[6] = Efflux ratio of permeability of the compound from basolateral to apical side over apical to basolateral side of human Caco2 cells; format: ADME, cell-based; conditions: Caco-2
[7] = Half life in human liver microsomes; format: ADME, Microsome
in vitro = conditions: human, liver microsomes
Cytochrome P450 1A = target: T2, Cytochrome P450 1A (Homo sapiens, UniProt P04798+P05177); assay: Inhibition of CYP1A at > 25 uM; format: ADME
T2 sequence (P04798 whole entry): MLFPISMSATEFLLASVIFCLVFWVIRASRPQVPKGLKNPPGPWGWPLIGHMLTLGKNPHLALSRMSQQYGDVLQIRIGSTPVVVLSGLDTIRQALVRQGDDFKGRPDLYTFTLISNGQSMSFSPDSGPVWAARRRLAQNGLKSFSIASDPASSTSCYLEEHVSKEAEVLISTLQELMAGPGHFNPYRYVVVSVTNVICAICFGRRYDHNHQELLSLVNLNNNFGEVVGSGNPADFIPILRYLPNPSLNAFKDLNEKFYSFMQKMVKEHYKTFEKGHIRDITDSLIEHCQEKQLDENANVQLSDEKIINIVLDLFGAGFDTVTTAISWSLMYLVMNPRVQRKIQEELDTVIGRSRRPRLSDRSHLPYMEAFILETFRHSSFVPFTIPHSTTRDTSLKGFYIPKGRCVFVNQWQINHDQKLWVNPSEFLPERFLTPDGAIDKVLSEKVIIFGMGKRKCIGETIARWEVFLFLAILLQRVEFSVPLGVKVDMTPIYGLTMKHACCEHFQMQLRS
T2 sequence (P05177 whole entry): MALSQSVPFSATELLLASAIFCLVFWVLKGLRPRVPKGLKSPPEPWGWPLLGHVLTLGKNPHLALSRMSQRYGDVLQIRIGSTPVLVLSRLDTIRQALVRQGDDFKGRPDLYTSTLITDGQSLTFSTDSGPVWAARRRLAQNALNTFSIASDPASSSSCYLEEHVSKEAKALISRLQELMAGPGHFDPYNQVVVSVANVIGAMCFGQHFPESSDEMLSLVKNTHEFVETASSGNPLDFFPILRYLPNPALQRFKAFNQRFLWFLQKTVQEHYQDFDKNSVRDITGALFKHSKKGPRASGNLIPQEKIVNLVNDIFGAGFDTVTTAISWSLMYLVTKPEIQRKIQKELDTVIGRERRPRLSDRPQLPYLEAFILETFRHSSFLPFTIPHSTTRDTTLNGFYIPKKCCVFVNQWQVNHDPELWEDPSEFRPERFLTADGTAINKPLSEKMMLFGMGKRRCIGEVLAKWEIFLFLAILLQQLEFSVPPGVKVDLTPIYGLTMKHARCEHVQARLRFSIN

Cytochrome P450 2C19 = Cytochrome P450 2C19 (Homo sapiens, UniProt P33261); assay: Inhibition of CYP2C19 at > 25 uM; format: ADME
Chain of Cytochrome P450 2C19 (P33261 whole entry): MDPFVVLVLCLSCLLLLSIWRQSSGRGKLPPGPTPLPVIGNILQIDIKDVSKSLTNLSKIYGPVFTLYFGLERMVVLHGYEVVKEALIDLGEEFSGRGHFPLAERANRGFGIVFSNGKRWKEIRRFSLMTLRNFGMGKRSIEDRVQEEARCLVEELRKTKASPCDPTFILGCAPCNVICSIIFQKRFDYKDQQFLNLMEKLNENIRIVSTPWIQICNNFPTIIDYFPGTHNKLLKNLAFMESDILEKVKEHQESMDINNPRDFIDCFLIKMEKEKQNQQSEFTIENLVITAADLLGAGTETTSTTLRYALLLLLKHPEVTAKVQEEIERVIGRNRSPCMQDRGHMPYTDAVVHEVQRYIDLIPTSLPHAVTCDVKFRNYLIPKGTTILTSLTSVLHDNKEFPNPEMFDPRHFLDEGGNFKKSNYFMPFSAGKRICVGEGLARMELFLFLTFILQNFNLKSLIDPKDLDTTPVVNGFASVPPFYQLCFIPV

Cytochrome P450 2C9 = Cytochrome P450 2C9 (Homo sapiens, UniProt P11712); assay: Inhibition of CYP2C9 at > 25 uM; format: ADME
Chain of Cytochrome P450 2C9 (P11712 whole entry): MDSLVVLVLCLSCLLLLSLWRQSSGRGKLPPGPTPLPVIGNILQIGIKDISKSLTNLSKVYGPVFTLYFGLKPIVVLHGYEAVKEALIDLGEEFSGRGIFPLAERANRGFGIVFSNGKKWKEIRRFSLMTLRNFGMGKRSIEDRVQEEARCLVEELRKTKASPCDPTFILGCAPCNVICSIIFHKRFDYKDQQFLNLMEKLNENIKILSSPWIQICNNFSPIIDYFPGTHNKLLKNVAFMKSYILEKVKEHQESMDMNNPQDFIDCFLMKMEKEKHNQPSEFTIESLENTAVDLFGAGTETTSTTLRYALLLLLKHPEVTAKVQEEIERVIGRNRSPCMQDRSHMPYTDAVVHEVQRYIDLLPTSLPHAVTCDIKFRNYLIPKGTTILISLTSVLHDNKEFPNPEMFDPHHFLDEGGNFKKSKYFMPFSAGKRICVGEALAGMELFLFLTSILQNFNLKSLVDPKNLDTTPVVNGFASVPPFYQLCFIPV

Cytochrome P450 2D6 = Cytochrome P450 2D6 (Homo sapiens, UniProt P10635); assay: Inhibition of CYP2D6 at > 25 uM; format: ADME
Chain of Cytochrome P450 2D6 (P10635 whole entry): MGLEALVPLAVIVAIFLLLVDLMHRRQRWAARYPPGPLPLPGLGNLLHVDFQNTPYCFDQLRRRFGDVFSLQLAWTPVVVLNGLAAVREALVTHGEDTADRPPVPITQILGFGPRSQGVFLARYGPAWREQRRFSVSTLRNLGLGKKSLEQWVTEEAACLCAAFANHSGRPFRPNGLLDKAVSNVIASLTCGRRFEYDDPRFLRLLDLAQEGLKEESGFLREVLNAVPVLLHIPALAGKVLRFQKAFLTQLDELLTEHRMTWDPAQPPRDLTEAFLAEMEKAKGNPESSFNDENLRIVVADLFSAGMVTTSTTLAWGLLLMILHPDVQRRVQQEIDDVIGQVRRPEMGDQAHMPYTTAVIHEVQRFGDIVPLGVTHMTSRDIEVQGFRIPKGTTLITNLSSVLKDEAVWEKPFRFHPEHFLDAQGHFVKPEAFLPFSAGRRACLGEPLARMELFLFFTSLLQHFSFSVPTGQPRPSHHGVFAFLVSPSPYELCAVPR

Cytochrome P450 3A4 = Cytochrome P450 3A4 (Homo sapiens, UniProt P08684); assay: Inhibition of CYP3A4 at > 25 uM; format: ADME
Chain of Cytochrome P450 3A4 (P08684 whole entry): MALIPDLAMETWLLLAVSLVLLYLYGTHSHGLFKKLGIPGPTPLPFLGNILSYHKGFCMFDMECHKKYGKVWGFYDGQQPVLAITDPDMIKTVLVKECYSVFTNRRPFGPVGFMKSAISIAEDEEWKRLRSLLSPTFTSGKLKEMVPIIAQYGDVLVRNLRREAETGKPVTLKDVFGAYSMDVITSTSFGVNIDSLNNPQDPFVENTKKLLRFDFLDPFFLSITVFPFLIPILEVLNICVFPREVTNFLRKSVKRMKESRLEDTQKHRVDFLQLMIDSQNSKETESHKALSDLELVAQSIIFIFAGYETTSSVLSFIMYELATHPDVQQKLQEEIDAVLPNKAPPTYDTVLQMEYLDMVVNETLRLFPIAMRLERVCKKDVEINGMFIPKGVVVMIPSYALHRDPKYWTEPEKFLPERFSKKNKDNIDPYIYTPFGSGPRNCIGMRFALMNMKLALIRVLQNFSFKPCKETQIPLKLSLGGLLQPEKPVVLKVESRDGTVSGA

T1 sequence (P11413 whole entry): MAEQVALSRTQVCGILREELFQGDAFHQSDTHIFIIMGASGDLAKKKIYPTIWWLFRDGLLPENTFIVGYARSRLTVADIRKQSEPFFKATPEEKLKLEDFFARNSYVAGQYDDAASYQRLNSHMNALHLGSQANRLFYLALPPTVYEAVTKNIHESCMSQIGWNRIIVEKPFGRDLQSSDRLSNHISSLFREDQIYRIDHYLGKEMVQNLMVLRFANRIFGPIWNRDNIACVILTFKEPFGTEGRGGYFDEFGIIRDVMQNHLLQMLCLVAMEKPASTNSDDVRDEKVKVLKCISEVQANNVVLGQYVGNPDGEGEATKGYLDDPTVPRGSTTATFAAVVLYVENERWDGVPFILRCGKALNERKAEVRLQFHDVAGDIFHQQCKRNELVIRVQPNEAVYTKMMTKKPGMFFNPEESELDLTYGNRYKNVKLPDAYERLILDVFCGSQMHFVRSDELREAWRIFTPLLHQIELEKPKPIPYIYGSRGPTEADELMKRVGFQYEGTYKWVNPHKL

| Compound | pIC50 [1] | pIC50 [2] | Ratio IC50 [3] | solubility kinetic [4] | also measured |
| --- | --- | --- | --- | --- | --- |
| C[C@]12CC[C@H](NS(C)(=O)=O)C[C@@H]1CC[C@@H]1[C@@H]2CC[C@]2(C)[C@@H](C(=O)CO)CC[C@@H]12 | 5.42 | 4.45 | 9.2 | 10 µM (≈ 4.12 µg/mL) | Papp A→B [5]: 17.4 ×10⁻⁶ cm/s; efflux ratio [6]: 0.3 |
| C[C@]12CC[C@H](NS(N)(=O)=O)C[C@@H]1CC[C@@H]1[C@@H]2CC[C@]2(C)[C@@H](C(=O)CO)CC[C@@H]12 | 5.92 | 4.85 | 11.8 | > 100 µM | Papp A→B [5]: 13.1 ×10⁻⁶ cm/s; efflux ratio [6]: 0.49; half-life [7]: 48.9 min; microsomal CLint (in vitro): 28.3 µL/min/mg |
| C[C@]12CC[C@H](NS(N)(=O)=O)C[C@@H]1CC[C@@H]1[C@@H]2CC[C@]2(C)C(=O)CC[C@@H]12 | 5.92 | 4.76 | 14.5 | 30 µM (≈ 11.1 µg/mL) | Papp A→B [5]: 31.8 ×10⁻⁶ cm/s; efflux ratio [6]: 0.66 |
| C[C@]12CC[C@H](O)CC1=CC[C@@H]1[C@@H]2CC[C@]2(C)C(=O)CC[C@@H]12 [PRASTERONE] | 4.95 | 4.60 | 2.2 | > 100 µM |  |
| CC(=O)[C@H]1CC[C@H]2[C@@H]3CC[C@H]4C[C@@H](NS(N)(=O)=O)CC[C@]4(C)[C@H]3CC[C@]12C | 5.70 | 5.04 | 4.6 | 10 µM (≈ 3.97 µg/mL) | Papp A→B [5]: 2.1 ×10⁻⁶ cm/s; efflux ratio [6]: 0.53 |
| CCNC(=O)N[C@H]1CC[C@@]2(C)[C@@H](CC[C@@H]3[C@@H]2CC[C@]2(C)C(=O)CC[C@@H]32)C1 | 6.00 | 5.02 | 9.5 | 30 µM (≈ 10.8 µg/mL) | Papp A→B [5]: 31.6 ×10⁻⁶ cm/s; efflux ratio [6]: 0.54; half-life [7]: 24.4 min; microsomal CLint (in vitro): 56.8 µL/min/mg |
| COC(=O)N[C@H]1CC[C@@]2(C)[C@@H](CC[C@@H]3[C@@H]2CC[C@]2(C)[C@@H](C(=O)CO)CC[C@@H]32)C1 | 4.38 |  |  |  |  |
| C/C(=N/O)[C@H]1CC[C@H]2[C@@H]3CC[C@H]4C[C@@H](O)CC[C@]4(C)[C@H]3CC[C@]12C | < 3.70 |  |  |  |  |
| C[C@]12CC[C@H]3[C@@H](CC=C4C[C@@H](O)CC[C@@]43C)[C@@H]1CC[C@@H]2C(=O)CO | 5.28 |  |  |  |  |
| C[C@]12CC[C@H](O)C[C@@H]1CC[C@@H]1[C@@H]2CC[C@]2(C)[C@@H](C(=O)CCl)CC[C@@H]12 | 5.03 |  |  |  |  |
| C[C@]12CC[C@H](O)C[C@@H]1CC[C@@H]1[C@@H]2CC[C@]2(C)C(=O)CC[C@@H]12 [EPIANDROSTERONE] | 5.03 |  |  |  |  |
| C[C@]12CC[C@H](O)C[C@@H]1CC[C@@H]1[C@@H]2CC[C@@]2(C)[C@H]1CC[C@@]21CCO1 | < 3.70 |  |  |  |  |
| CC(=O)[C@H]1CC[C@H]2[C@@H]3CC=C4C[C@@H](O)CC[C@]4(C)[C@H]3CC[C@]12C [PREGNENOLONE] | 4.09 |  |  |  |  |
| C[C@]12CC[C@H](O)C[C@@H]1CC[C@@H]1[C@@H]2CC[C@]2(C)[C@@H](C(=O)CO)CC[C@@H]12 | 6.05 | 4.91 | 13.7 | > 100 µM | inhibition (INH) (Cytochrome P450 1A): Not Active; inhibition (INH) (Cytochrome P450 2C19): Not Active; inhibition (INH) (Cytochrome P450 2C9): Not Active; inhibition (INH) (Cytochrome P450 2D6): Not Active; inhibition (INH) (Cytochrome P450 3A4): Not Active |
| C[C@]12CC[C@H](O)CC1=CC[C@@H]1[C@@H]2CC[C@@]2(C)[C@H]1CC[C@@]21CO1 | < 3.70 |  |  |  |  |
| C[C@]12CC[C@H](O)C[C@@H]1CC[C@@H]1[C@@H]2CC[C@@]2(C)[C@H]1CC[C@@]21CO1 | < 3.70 |  |  |  |  |
| C[C@]12CC[C@H](O)C[C@@H]1CC[C@@H]1[C@@H]2CC[C@@]2(C)[C@H]1CC[C@]2(O)C(=O)CO | 5.28 |  |  |  |  |
| CN(C)C(=O)N[C@H]1CC[C@@]2(C)[C@@H](CC[C@@H]3[C@@H]2CC[C@]2(C)C(=O)CC[C@@H]32)C1 | < 3.70 |  |  |  |  |
| CC(=O)[C@H]1CC[C@H]2[C@@H]3CC[C@H]4C[C@@H](NS(C)(=O)=O)CC[C@]4(C)[C@H]3CC[C@]12C | 5.47 | 5.32 | 1.4 | 3 µM (≈ 1.19 µg/mL) | half-life [7]: 135 min; microsomal CLint (in vitro): 10.3 µL/min/mg |
| CCCCNC(=O)N[C@H]1CC[C@@]2(C)[C@@H](CC[C@@H]3[C@@H]2CC[C@]2(C)C(=O)CC[C@@H]32)C1 | 5.77 |  |  |  |  |
| C[C@]12CC[C@H](O)C[C@@H]1CC[C@@H]1[C@@H]2CC[C@]2(C)C(=O)[C@H](Br)C[C@@H]12 [16.ALPHA.-BROMOEPIANDROSTERONE] | 4.68 |  |  |  |  |
| CO[C@]1(C(C)=O)CC[C@H]2[C@@H]3CC[C@H]4C[C@@H](O)CC[C@]4(C)[C@H]3CC[C@@]21C | < 3.70 |  |  |  |  |
| CC(=O)N[C@H]1CC[C@@]2(C)[C@@H](CC[C@@H]3[C@@H]2CC[C@]2(C)[C@@H](C(C)=O)CC[C@@H]32)C1 | < 3.70 |  |  |  |  |
| C[C@]12CC[C@H](O)C[C@@H]1CC[C@@H]1[C@@H]2CC[C@]2(C)/C(=N/O)CC[C@@H]12 | < 3.70 |  |  |  |  |
| C[C@]12CC[C@@H](O)C[C@@H]1CC[C@@H]1[C@@H]2CC[C@]2(C)[C@@H](C(=O)CO)CC[C@@H]12 | 4.50 |  |  |  |  |
| COC(=O)N[C@H]1CC[C@@]2(C)[C@@H](CC[C@@H]3[C@@H]2CC[C@]2(C)[C@@H](C(C)=O)CC[C@@H]32)C1 | < 3.70 |  |  |  |  |
| C[C@]12CC[C@H](NC(N)=O)C[C@@H]1CC[C@@H]1[C@@H]2CC[C@]2(C)C(=O)CC[C@@H]12 | 5.30 |  |  |  |  |
| CC(=O)[C@H]1CC[C@H]2[C@@H]3CC[C@H]4C[C@@H](N)CC[C@]4(C)[C@H]3CC[C@]12C | < 3.70 |  |  |  |  |
| COC(=O)N[C@H]1CC[C@@]2(C)[C@@H](CC[C@@H]3[C@@H]2CC[C@]2(C)C(=O)CC[C@@H]32)C1 | 5.82 | 5.11 | 5.2 | > 100 µM |  |
| CC(=O)[C@H]1CC[C@H]2[C@@H]3CC[C@H]4C[C@@H](NC(=O)N(C)C)CC[C@]4(C)[C@H]3CC[C@]12C | < 3.70 |  |  |  |  |
